What was measured:
[1] = system: LTD4-induced contraction; test: Relaxant effect on LTD4-induced contraction
[2] = NGI aerosol testing, mass retained in device and capsule; assay type: physicochemical; conditions: 40 mg capsule fill weight, standard and high resistance Miat Monodose inhalers
Method: (§1) For method development using the NGI method, size three HPMC capsules were hand filled with forty milligrams of micronized ASM-024. Three capsules were tested according to manufacturer's instructions using the following conditions: • Cup coating agent: 3% PEG400 with 0.1% F68 in acetone • Testing flow rate: 60 LPM • Testing volume: 4 L (4 second actuation) • Device: Miat Monodose Inhaler (standard resistance) • Sample diluent: 70% MeOH: 30% H2O (v/v) • Dilutions • Device—50 ml • Throat—50 ml • Pre-separator—100 ml • Stage 1—MOC—10 ml • Filter—50 ml
Aerosol performance and stability was assessed. Milled API was hand filled into size 3 HPMC capsules and size 3 gelatin capsules (40 mg capsule fill weight). NGI testing was performed in duplicate using standard resistance and high resistance Miat Monodose inhalers. […] The high resistance device has provided an increased FPM of ASM-024 from both HPMC and gelatin capsules.

[3] = Particle size analysis (PSD), Malvern Mastersizer; assay type: physicochemical
Method: A 2 g sample of anhydrous crystalline ASM-024 was taken and fed through the Sturtevant Qualification Micronizer. The mill has a 2 inch chamber, and was operated at 80 psig grinding pressure and 90 psig feed pressure. Milled API was recovered from the exhaust filter sock and physically characterized.
Particle size analysis was performed using a Malvern Mastersizer with a Small Sample Presentation Unit. The dispersant used was ethyl acetate with 2 g of SPAN 85 per liter. Samples were prepared by sonicating 5 mg of sample in 2 ml of dispersant, the sample was then added dropwise to achieve 20% obscuration.
Magnesium stearate was blended with un-milled ASM-024 in two gram lots. Approximately one gram of ASM-024 was weighed into a 28 ml vial. The appropriate mass of magnesium stearate was then weighed on top of the API and the weight completed to two grams with ASM-024. The materials were blended using a Turbula T2F mixer at 101 rpm for ten minutes. The blended material was passed through the Sturtevant Qualification Micronizer and recovered from the filter sock.

[4] = ASM-024 capsule stability study, NGI testing of fine particle mass (FPM); assay type: physicochemical; conditions: eight weeks at 40° C./75% RH
Method: as §1
A two month study was performed at accelerated conditions with testing at two weeks, four weeks and eight weeks. Hand filled 40 mg capsules were packed in foil pouches with a 10 g desiccant pouch and heat sealed. Hand filled 40 mg capsules were also packed in foil pouches and heat sealed without a desiccant pouch. All heat seals were hand checked to ensure seal integrity. Pouches were placed on stability at 40° C./75% RH. NGI testing of the capsules stored without desiccant were conducted over the eight week study.

[5] = PSD of ASM-024 prior to micronization
[6] = co-milled with 0.2 % w/w magnesium stearate
[7] = co-milled with 0.5 % w/w magnesium stearate
[8] = co-milled with 1.0 % w/w magnesium stearate
[9] = co-milled with 2.0 % w/w magnesium stearate
[10] = milled, 0.0 % magnesium stearate

## CC[N+]1(CC)CCCN(c2ccccc2)CC1 [ASM-024]
[1]
  relaxant effect on LTD4-induced contraction: no relaxant effect
[2]
  mass of ASM-024 retained in the device and capsule after NGI testing: less than 20 mg
[3]; [5]
  d10: 13.92 μm
  d50: 41.67 μm
  d90: 91.89 μm
[3]; after one pass in jet air mill
  d10: 0.78 μm
  d50: 2.10 μm
  d90: 4.70 μm
[3]; [6]
  d10: 0.89 µm
  d50: 1.74 µm
  d90: 3.33 µm
[3]; [7]
  d10: 0.89 µm
  d50: 1.86 µm
  d90: 3.94 µm
[3]; [8]
  d10: 0.9 µm
  d50: 1.7 µm
  d90: 3.17 µm
[3]; [9]
  d10: 0.91 µm
  d50: 1.69 µm
  d90: 3.11 µm
[3]; [10]
  d10: 0.97 µm
  d50: 1.95 µm
  d90: 3.8 µm
[4]; 40 mg capsules in foil pouches with 10 g desiccant pouch
  decrease in FPM: ~5.7%
[4]; 40 mg capsules in foil pouches without desiccant
  decrease in FPM: 10.9%

Reference: patent publication US9944610B2, “Preparation and method for use in the treatment of respiratory diseases” (Universite Laval, priority 2013, dated 2018)
